According to publication PMC7178883, “1,2,4-Triazole-based anticonvulsant agents with additional ROS scavenging activity are effective in a model of pharmacoresistant epilepsy” (Journal of Enzyme Inhibition and Medicinal Chemistry, 2020):
≈ marks a conversion by molar mass, not a printed value. Read-outs that look alike come from different tables or passages of the source.

What was measured:
[1] = DPPH assay; details: methanol, 30 min, 517 nm
Procedure: Free radical scavenging activity of compounds TP-10, TP-315 and TP-427 was evaluated using DPPH assay. Briefly, 25 µl of 0.2 mM of methanolic solution of DPPH ([…]) was mixed with 175 µl of varying concentrations (0.002–4.5 mg/ml) of the studied compounds dissolved in methanol. Reaction mixtures in the 96-well plate were incubated in the dark at room temperature for 30 min. The absorbance was measured at 517 nm against blank (which consists of all reagents without the investigated compounds) using a microplate reader (Epoch, BioTek Instruments, Inc., Winooski, VT, USA). As a reference, the antioxidant activity of vitamin C was evaluated. Each concentration of the compounds was assayed at least six times. The results were expressed as the IC50 (µg/ml) ± SD calculated using the linear regression analysis.

[2] = CUPRAC assay; details: pH 7.0, 450 nm
Procedure: Cupric reducing antioxidant capacity (CUPRAC) assay was performed according to the method by Apak et al.[20] with slight modifications. The CUPRAC reagent was prepared by mixing equal volume of CuCl2 (10 mM), neocuproine solution (7.5 mM), and acetate buffer (pH = 7.0). Subsequently, 50 µl of TP-10, TP-315, TP-427 (0.002–0.4 mg/ml) and 150 µl of CUPRAC reagent were pipetted into each well of 96-well plate (Nunc, Roskilde, Denmark). After pipetting, the plate was shaken for 5 min and then incubated for 25 min in the dark at room temperature. The absorbance of the solutions was read at 450 nm using a microplate reader (Epoch, BioTek Instruments, Inc., Winooski, VT, USA). At least six tests were performed for each concentration of the investigated compounds. The results were expressed as the IC50 (µg/ml) ± SD.

[3] = set-up: method as in Barton et al. 25; details: ref Barton et al. 25, cited from earlier work
[4] = system: 6 Hz-induced psychomotor seizures; set-up: method as in Barton et al. 25; details: pretreatment time 15 min, ref Barton et al. 25, cited from earlier work

With `O=C1O[C@H]([C@@H](O)CO)C(O)=C1O` [Ascorbic acid, reference compound] the “IC50 ± SD, DPPH” value [1] was 7.82 ± 0.54 µg/mL (≈ 44.4 µM) and the “IC50 ± SD, CUPRAC” value [2] was 16.05 ± 0.48 µg/mL (≈ 91.1 µM).
For `CC[C@@H](C(N)=O)N1CCCC1=O` [Levetiracetam], the TD50 ([3]; pretreatment time 60 min) is given as over 500 mg/kg.
In the case of `CCCC(CCC)C(=O)O` [Valproate, valproic acid], the TD50 ([3]; pretreatment time 15 min) is given as 363.3 mg/kg, the ED50 ([4]; mouse 6 Hz test) is given as 130.6 mg/kg and the “Protective index (TD50/ED50)” value [4] is given as 2.8.
